Measurements taken from DBAASP.
≈ marks a conversion by molar mass, not a printed value. One block for each compound: values may come before it.

Legend:
Test in all cases: ≥ marks a high value that may be exact or a test limit, other limits are often not marked, values filed in µg/mL are converted to µM
[1] = tested on: Pectobacterium carotovorum
[2] = tested on: Candida albicans ATCC 90028
Fusarium oxysporum = tested on: Fusarium oxysporum
Fusarium solani = tested on: Fusarium solani
[3] = tested on: Bacillus subtilis ATCC 23857
Trichoderma asperellum = tested on: Trichoderma asperellum
[4] = tested on: Escherichia coli ATCC 25922
Ramulariopsis gossypii = tested on: Ramulariopsis gossypii
[5] = tested on: Cryptococcus neoformans ATCC 28957
[6] = tested on: Staphylococcus aureus ATCC 25923
[7] = tested on: Pseudomonas syringae pv. tabaci
[8] = tested on: Fusarium oxysporum f.sp. vasinfectum
[9] = tested on: Staphylococcus aureus CMCC 26003
[10] = tested on: Listeria monocytogenes ATCC 19115
[11] = tested on: Bacillus subtilis CMCC 63501
[12] = tested on: Salmonella enterica AB2010185
[13] = tested on: Micrococcus luteus AB2010179
[14] = tested on: Staphylococcus aureus AB94004
[15] = tested on: Bacillus magaterium AB90008
Pseudomonas fluorescens = tested on: Pseudomonas fluorescens
[16] = tested on: Enterobacter cloacae AB2010162
[17] = tested on: Escherichia coli DH5alpha
Pseudomonas putida = tested on: Pseudomonas putida
Klebsiella pneumoniae = tested on: Klebsiella pneumoniae
[18] = tested on: Salmonella enterica subsp. enterica serovar Typhimurium C77-31
Escherichia coli UB1005 = tested on: Escherichia coli UB1005
[19] = tested on: Pseudomonas aeruginosa CICC 21630
[20] = tested on: Salmonella enterica subsp. enterica serovar Typhimurium ATCC 14028
Acinetobacter baumannii = tested on: Acinetobacter baumannii
Escherichia coli K99 = tested on: Escherichia coli K99
Escherichia coli K88 = tested on: Escherichia coli K88
[21] = tested on: Pseudomonas aeruginosa CICC 21625
[22] = tested on: Pseudomonas aeruginosa ATCC 27853
[23] = tested on: Salmonella enterica subsp. enterica serovar Pullorum C79-13
[24] = tested on: Pseudomonas aeruginosa PAO1
Escherichia coli = tested on: Escherichia coli
Pseudomonas aeruginosa = tested on: Pseudomonas aeruginosa
[25] = tested on: Aspergillus niger CECT 2694
[26] = tested on: Xanthomonas vesicatoria 2133-2
[27] = tested on: Pseudomonas syringae EPS 94
[28] = tested on: Fusarium oxysporum f. sp. lycopersici ATCC 201829
[29] = tested on: Penicillium expansum EPS 26
[30] = tested on: Rhizopus stolonifer CECT 2344
[31] = tested on: Erwinia amylovora PMV 6076

SMILES: CC[C@H](C)[C@H](NC(=O)[C@H](CCCN=C(N)N)NC(=O)[C@H](CCCN=C(N)N)NC(=O)[C@H](Cc1c[nH]c2ccccc12)NC(=O)[C@@H](N)Cc1ccccc1)C(=O)N[C@@H](CCCN=C(N)N)C(=O)N[C@H](C(=O)N[C@H](C(=O)N1CCC[C@H]1C(=O)N[C@@H](Cc1c[nH]c2ccccc12)C(=O)N[C@H](C(=O)N[C@@H](CC(N)=O)C(=O)N1CCC[C@H]1C(=O)N1CCC[C@H]1C(=O)N[C@@H](Cc1ccccc1)C(=O)N[C@@H](CC(C)C)C(=O)N[C@@H](CCC(N)=O)C(=O)N[C@@H](CCC(N)=O)C(=O)N[C@H](C(N)=O)[C@@H](C)O)C(C)C)[C@@H](C)O)C(C)C [FWRRIRVTPWVNPPFLQQT]
MIC [9]: 26.2 µM (≈ 64 µg/mL)
MIC [11]: ≥ 105 µM
MIC [10]: 26.2 µM (≈ 64 µg/mL)

SMILES: CC(C)C[C@H](NC(=O)[C@@H]1CCCN1C(=O)[C@H](CCCN=C(N)N)NC(=O)[C@H](CC(C)C)NC(=O)[C@H](CC(C)C)NC(=O)[C@@H]1CCCN1C(=O)[C@H](CCCN=C(N)N)NC(=O)[C@H](CC(C)C)NC(=O)[C@H](CC(C)C)NC(=O)[C@@H]1CCCN1C(=O)[C@H](CCCN=C(N)N)NC(=O)[C@H](CC(C)C)NC(=O)[C@H](CC(C)C)NC(=O)[C@@H]1CCCN1C(=O)[C@H](CCCN=C(N)N)NC(=O)[C@H](CC(C)C)NC(=O)[C@H](CC(C)C)NC(=O)[C@@H]1CCCN1C(=O)[C@H](CCCN=C(N)N)NC(=O)[C@H](CC(C)C)NC(=O)[C@H](CC(C)C)NC(=O)[C@@H]1CCCN1C(=O)[C@H](CCCN=C(N)N)NC(=O)[C@@H](N)CC(C)C)C(N)=O [LRPLLRPLLRPLLRPLLRPLLRPL]
MIC (Klebsiella pneumoniae): 8 µM (≈ 23.2 µg/mL)
MIC [18]: 2 µM (≈ 5.79 µg/mL)
MIC [4]: 2 µM (≈ 5.79 µg/mL)
MIC (Escherichia coli UB1005): 2 µM (≈ 5.79 µg/mL)
MIC [19]: 8 µM (≈ 23.2 µg/mL)
MIC [20]: 4 µM (≈ 11.6 µg/mL)
MIC (Acinetobacter baumannii): 2 µM (≈ 5.79 µg/mL)
MIC (Escherichia coli K99): 2 µM (≈ 5.79 µg/mL)
MIC (Escherichia coli K88): 2 µM (≈ 5.79 µg/mL)
MIC [21]: ≥ 32 µM
MIC [22]: 8 µM (≈ 23.2 µg/mL)
MIC [23]: 2 µM (≈ 5.79 µg/mL)
MIC [24]: 4 µM (≈ 11.6 µg/mL)
MIC (Escherichia coli): 2 µM (≈ 5.79 µg/mL)
MIC (Pseudomonas aeruginosa): 32 µM (≈ 92.6 µg/mL)

SMILES: CC(C)C[C@H](NC(=O)[C@@H]1CCCN1C(=O)[C@H](CCCN=C(N)N)NC(=O)[C@H](CC(C)C)NC(=O)[C@H](CC(C)C)NC(=O)[C@@H]1CCCN1C(=O)[C@H](CCCN=C(N)N)NC(=O)[C@H](CC(C)C)NC(=O)[C@H](CC(C)C)NC(=O)[C@@H]1CCCN1C(=O)[C@H](CCCN=C(N)N)NC(=O)[C@H](CC(C)C)NC(=O)[C@H](CC(C)C)NC(=O)[C@@H]1CCCN1C(=O)[C@H](CCCN=C(N)N)NC(=O)[C@H](CC(C)C)NC(=O)[C@H](CC(C)C)NC(=O)[C@@H]1CCCN1C(=O)[C@H](CCCN=C(N)N)NC(=O)[C@@H](N)CC(C)C)C(N)=O [LRPLLRPLLRPLLRPLLRPL]
MIC (Klebsiella pneumoniae): 8 µM (≈ 19.3 µg/mL)
MIC [18]: 4 µM (≈ 9.66 µg/mL)
MIC [4]: 4 µM (≈ 9.66 µg/mL)
MIC (Escherichia coli UB1005): 4 µM (≈ 9.66 µg/mL)
MIC [19]: 16 µM (≈ 38.6 µg/mL)
MIC [20]: 4 µM (≈ 9.66 µg/mL)
MIC (Acinetobacter baumannii): 2 µM (≈ 4.83 µg/mL)
MIC (Escherichia coli K99): 4 µM (≈ 9.66 µg/mL)
MIC (Escherichia coli K88): 2 µM (≈ 4.83 µg/mL)
MIC [21]: ≥ 32 µM
MIC [22]: 32 µM (≈ 77.3 µg/mL)
MIC [23]: 2 µM (≈ 4.83 µg/mL)
MIC [24]: 32 µM (≈ 77.3 µg/mL)
MIC (Escherichia coli): 4 µM (≈ 9.66 µg/mL)
MIC (Pseudomonas aeruginosa): 32 µM (≈ 77.3 µg/mL)

Continued, values first:

MIC [1]: 16 µM (≈ 33.9 µg/mL)
MIC [2]: ≥ 128 µM
MIC (Fusarium oxysporum): ≥ 128 µM
MIC (Fusarium solani): ≥ 128 µM
MIC [3]: ≥ 64 µM
MIC (Trichoderma asperellum): ≥ 256 µM
MIC [4]: 128 µM (≈ 271 µg/mL)
MIC (Ramulariopsis gossypii): ≥ 64 µM
MIC [5]: ≥ 32 µM
MIC [6]: 128 µM (≈ 271 µg/mL)
MIC [7]: ≥ 128 µM
MIC [8]: ≥ 128 µM
SMILES: CC[C@H](C)[C@H](NC(=O)[C@H](CCCCN)NC(=O)[C@@H](NC(=O)[C@@H](NC(=O)[C@H](CC(N)=O)NC(=O)[C@H](Cc1ccc(O)cc1)NC(=O)[C@H](Cc1ccccc1)NC(=O)[C@@H](N)Cc1ccccc1)C(C)C)[C@@H](C)CC)C(=O)N[C@@H](Cc1ccc(O)cc1)C(=O)NCC(=O)N[C@@H](CC(N)=O)C(=O)N[C@@H](CCSC)C(=O)N[C@@H](C)C(=O)NCC(=O)N[C@@H](CCCN=C(N)N)C(=O)N[C@H](C(=O)N[C@@H](CO)C(=O)N[C@@H](CCCCN)C(N)=O)[C@@H](C)CC [FFYNVIKIYGNMAGRISK]

MIC [9]: ≥ 108 µM
MIC [10]: ≥ 54 µM
SMILES: CC[C@H](C)[C@H](NC(=O)[C@H](CCCN=C(N)N)NC(=O)[C@H](CCCN=C(N)N)NC(=O)[C@H](CC(C)C)NC(=O)[C@@H](N)Cc1ccccc1)C(=O)N[C@@H](CCCN=C(N)N)C(=O)N[C@H](C(=O)N[C@H](C(=O)N1CCC[C@H]1C(=O)N[C@@H](Cc1c[nH]c2ccccc12)C(=O)N[C@H](C(=O)N[C@@H](CC(N)=O)C(=O)N1CCC[C@H]1C(=O)N1CCC[C@H]1C(=O)N[C@@H](Cc1ccccc1)C(=O)N[C@@H](CC(C)C)C(=O)N[C@@H](CCC(N)=O)C(=O)N[C@@H](CCC(N)=O)C(=O)N[C@H](C(N)=O)[C@@H](C)O)C(C)C)[C@@H](C)O)C(C)C [FLRRIRVTPWVNPPFLQQT]

MIC [12]: ≥ 35 µM
MIC [13]: 2 µM (≈ 2.99 µg/mL)
MIC [14]: 12 µM (≈ 17.9 µg/mL)
MIC [15]: ≥ 50 µM
MIC (Pseudomonas fluorescens): ≥ 32 µM
MIC [16]: ≥ 82 µM
MIC [17]: ≥ 82 µM
MIC (Pseudomonas putida): 16 µM (≈ 23.9 µg/mL)
SMILES: CC[C@H](C)[C@H](N)C(=O)N[C@@H](CC(C)C)C(=O)NCC(=O)N[C@@H](CCCCN)C(=O)N[C@H](C(=O)N[C@@H](Cc1c[nH]c2ccccc12)C(=O)N[C@@H](CCCCN)C(=O)NCC(=O)N[C@H](C(=O)N[C@@H](CCCCN)C(=O)N[C@@H](CC(N)=O)C(=O)N[C@H](C(=O)N[C@@H](CC(C)C)C(N)=O)[C@@H](C)CC)[C@@H](C)CC)[C@@H](C)CC [ILGKIWKGIKNIL]

MIC [25]: 22.4 µM (≈ 32.7 µg/mL)
MIC [26]: 2 µM (≈ 2.93 µg/mL)
MIC [27]: 5.92 µM (≈ 8.65 µg/mL)
MIC [28]: 1.73 µM (≈ 2.53 µg/mL)
MIC [29]: 22.4 µM (≈ 32.7 µg/mL)
MIC [30]: ≥ 35.4 µM
MIC [31]: 5.92 µM (≈ 8.65 µg/mL)
SMILES: CC[C@H](C)[C@H](NC(=O)[C@H](CCCCN)NC(=O)[C@H](CCCCN)NC(=O)[C@H](Cc1ccccc1)NC(=O)[C@H](CC(C)C)NC(=O)[C@H](CCCCN)NC(=O)[C@@H](N)Cc1c[nH]c2ccccc12)C(=O)N[C@@H](CC(C)C)C(=O)N[C@@H](CCCCN)C(=O)N[C@@H](Cc1ccccc1)C(=O)N[C@@H](CC(C)C)C(N)=O [WKLFKKILKFL]
